Test results: patent US9340590B2 (priority 2011, dated 2016)
Like-named read-outs stand apart in the source and are kept apart here. Positions of bridges follow the written chain, without caps; N, C: chain ends. Non-standard residues stand in square brackets, D forms with d. Residues, ends and D or L forms follow the SMILES beside them. Abu = CC[C@H](N)C(=O)O

Legend:
in vivo [1] = conditions: male, CD-1, mouse, sc, 5 mg/kg, terminal exposure (peptide plasma concentration at 2 h post peptide injection), later studies, 5 mg/kg s.c.
[2] = tested on: locomotor activity in male CD-1 mice; conditions: 5 mg/kg
hNav1.5 [3] = molecular target: T1, hNav1.5 (Homo sapiens, UniProt Q14524); assay: cell-based; conditions: IonWorks Quattro; clamped to −110 mV, depolarized to −10 mV, 5 min after compound; n=2; read-out: IWQ Use Nav1.5
[4] = human plasma, 37° C., incubation time 0 hr (normalisation point)
hNav1.7 [5] = molecular target: T2, hNav1.7 (Homo sapiens, UniProt Q15858); assay: cell-based; conditions: Nav1.7 Use IC50
hNav1.3 [6] = molecular target: T3, hNav1.3 (Homo sapiens, UniProt Q9NY46); assay: cell-based; conditions: IonWorks Quattro; clamped to −110 mV, depolarized to −10 mV, 5 min after compound; n=2; read-out: IWQ Use Nav1.3
hNav1.3 [7] = molecular target: T3, hNav1.3; assay: cell-based; assay type: cell-based
in vitro [8] = conditions: human, plasma
[9] = mouse plasma, 37° C., incubation time 0 hr (normalisation point)
in vitro [10] = conditions: mouse, plasma
[11] = rat plasma, 37° C.
hNav1.5 [12] = molecular target: T1, hNav1.5; assay: cell-based; conditions: read-out: Nav1.5 Use IC50
in vivo [13] = conditions: male, CD-1, mouse, sc, 5 mg/kg, terminal exposure (peptide plasma concentration at 45 min post formalin injection)
[14] = tested on: veratridine-induced spontaneous nociceptive behaviors in male CD-1 mice; conditions: mouse, in vivo
NaV1.7 = conditions: read-out: EC50, impairs fast inactivation; cited from earlier work
[15] = rat, in vivo, 0.1 mg/kg; cited from earlier work
[16] = tested on: C-fiber compound action potential; conditions: cited from earlier work
mechanical hyperalgesia = conditions: rat, in vivo; cited from earlier work
hNav1.5 [17] = molecular target: T1, hNav1.5; assay type: cell-based
hNav1.4 = hNav1.4 (Homo sapiens, UniProt P35499); assay: cell-based; conditions: read-out: Nav1.4 Use IC50
hNav1.7 [18] = molecular target: T2, hNav1.7; assay type: cell-based

T2 sequence (Q15858 whole entry, looked up): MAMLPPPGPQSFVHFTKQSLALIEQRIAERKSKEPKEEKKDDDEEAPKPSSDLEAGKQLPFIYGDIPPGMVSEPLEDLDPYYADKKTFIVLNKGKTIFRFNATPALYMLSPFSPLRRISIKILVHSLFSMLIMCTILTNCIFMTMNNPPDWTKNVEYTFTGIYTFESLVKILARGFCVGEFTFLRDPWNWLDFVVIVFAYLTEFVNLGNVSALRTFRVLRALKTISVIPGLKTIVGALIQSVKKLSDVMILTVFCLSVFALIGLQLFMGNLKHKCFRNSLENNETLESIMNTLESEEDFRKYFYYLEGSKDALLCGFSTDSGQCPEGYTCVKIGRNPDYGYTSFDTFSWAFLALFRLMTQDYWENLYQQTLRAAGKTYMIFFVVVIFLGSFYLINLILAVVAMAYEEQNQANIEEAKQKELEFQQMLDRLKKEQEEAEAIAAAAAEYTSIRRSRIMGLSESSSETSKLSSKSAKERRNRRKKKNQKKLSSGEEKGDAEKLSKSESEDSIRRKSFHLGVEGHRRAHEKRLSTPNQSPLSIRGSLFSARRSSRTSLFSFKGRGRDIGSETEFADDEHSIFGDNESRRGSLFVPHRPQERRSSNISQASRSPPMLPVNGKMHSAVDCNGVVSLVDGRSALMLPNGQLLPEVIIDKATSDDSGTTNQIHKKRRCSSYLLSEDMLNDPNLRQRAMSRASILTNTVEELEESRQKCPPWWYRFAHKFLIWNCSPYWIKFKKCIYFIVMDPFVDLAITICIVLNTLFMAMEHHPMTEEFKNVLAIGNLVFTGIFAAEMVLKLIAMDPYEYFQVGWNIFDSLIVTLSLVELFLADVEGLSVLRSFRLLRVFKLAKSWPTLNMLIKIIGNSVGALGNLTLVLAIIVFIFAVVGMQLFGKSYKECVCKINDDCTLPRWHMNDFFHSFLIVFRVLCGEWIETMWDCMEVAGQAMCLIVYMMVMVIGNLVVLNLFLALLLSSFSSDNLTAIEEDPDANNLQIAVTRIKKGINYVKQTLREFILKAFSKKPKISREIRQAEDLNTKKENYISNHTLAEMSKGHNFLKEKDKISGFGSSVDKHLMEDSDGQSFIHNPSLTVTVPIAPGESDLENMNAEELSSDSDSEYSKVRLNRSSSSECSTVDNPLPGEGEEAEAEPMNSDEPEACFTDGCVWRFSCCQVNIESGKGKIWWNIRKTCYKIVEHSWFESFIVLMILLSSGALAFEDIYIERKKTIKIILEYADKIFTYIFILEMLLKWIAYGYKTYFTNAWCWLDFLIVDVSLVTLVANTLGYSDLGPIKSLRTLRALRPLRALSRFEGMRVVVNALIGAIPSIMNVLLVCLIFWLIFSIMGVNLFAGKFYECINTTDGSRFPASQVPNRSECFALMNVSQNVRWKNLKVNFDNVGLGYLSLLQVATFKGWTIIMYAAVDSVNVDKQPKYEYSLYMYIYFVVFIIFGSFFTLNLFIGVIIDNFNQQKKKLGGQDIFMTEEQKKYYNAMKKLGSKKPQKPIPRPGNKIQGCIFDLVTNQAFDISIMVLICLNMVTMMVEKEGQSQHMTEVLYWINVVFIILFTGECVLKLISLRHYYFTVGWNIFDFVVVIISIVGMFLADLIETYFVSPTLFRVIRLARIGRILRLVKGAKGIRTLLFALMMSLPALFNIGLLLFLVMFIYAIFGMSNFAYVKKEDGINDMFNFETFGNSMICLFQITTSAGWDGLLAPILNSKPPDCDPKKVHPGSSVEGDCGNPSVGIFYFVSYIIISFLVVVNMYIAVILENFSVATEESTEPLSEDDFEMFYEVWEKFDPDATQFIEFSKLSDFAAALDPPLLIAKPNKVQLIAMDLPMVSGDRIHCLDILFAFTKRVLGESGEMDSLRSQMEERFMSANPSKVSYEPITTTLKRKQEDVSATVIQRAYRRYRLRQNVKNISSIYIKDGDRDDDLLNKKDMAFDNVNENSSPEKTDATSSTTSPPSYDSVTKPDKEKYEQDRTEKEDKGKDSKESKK
T3 sequence (Q9NY46 whole entry, looked up): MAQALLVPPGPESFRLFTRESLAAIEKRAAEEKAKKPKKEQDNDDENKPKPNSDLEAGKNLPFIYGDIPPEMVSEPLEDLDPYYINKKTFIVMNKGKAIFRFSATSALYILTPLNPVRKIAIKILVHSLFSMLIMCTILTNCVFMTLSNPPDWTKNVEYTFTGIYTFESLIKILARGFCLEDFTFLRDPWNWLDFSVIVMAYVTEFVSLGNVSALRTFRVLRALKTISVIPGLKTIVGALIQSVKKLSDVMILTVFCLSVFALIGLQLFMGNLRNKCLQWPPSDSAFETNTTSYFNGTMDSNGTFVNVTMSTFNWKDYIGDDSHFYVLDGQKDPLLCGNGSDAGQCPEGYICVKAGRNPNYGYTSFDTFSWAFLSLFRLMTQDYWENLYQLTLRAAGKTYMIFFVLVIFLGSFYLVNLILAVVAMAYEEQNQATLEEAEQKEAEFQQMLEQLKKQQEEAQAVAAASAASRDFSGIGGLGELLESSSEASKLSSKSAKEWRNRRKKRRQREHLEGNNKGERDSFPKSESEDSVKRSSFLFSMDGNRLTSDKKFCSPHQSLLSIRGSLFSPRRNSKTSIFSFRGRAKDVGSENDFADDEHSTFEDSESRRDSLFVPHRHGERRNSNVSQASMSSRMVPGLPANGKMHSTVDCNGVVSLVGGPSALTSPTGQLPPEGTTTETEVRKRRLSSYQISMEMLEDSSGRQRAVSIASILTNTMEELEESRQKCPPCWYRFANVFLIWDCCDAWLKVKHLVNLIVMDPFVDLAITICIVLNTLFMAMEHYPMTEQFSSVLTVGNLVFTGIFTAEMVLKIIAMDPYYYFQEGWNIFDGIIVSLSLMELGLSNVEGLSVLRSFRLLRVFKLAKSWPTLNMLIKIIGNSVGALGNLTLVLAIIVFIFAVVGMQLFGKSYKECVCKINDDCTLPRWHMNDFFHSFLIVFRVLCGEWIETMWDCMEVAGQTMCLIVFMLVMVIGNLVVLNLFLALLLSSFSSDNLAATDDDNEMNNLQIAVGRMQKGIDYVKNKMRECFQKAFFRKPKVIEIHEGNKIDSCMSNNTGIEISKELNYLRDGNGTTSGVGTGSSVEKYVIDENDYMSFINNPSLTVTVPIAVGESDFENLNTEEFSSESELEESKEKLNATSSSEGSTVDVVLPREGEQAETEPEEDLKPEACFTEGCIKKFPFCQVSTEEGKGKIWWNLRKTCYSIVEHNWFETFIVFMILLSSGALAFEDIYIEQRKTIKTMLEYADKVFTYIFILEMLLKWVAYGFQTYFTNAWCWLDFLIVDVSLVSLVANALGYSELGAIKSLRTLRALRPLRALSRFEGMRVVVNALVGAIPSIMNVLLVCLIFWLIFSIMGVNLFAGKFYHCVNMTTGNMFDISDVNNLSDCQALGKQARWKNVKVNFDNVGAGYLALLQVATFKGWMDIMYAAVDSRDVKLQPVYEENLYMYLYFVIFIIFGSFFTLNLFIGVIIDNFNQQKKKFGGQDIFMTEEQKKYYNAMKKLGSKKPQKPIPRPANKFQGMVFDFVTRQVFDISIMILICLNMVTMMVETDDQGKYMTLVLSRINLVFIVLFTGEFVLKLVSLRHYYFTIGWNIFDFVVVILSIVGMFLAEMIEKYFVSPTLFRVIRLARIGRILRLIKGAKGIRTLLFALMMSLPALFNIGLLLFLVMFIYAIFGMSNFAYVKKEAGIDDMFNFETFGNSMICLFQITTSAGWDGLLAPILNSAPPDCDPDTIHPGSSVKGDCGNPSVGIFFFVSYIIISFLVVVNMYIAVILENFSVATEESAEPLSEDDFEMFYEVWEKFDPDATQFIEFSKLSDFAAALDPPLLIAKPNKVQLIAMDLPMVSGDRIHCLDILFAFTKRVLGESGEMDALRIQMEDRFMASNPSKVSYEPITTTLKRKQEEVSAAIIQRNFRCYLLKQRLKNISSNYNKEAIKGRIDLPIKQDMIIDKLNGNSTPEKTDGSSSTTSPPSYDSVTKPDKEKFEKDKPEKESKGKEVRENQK

**Q.** With `CC[C@@H]1NC(=O)[C@H](CC(=O)O)NC(=O)[C@@H]2CCCN2C(=O)[C@H](CCC(=O)O)NC(=O)[C@@H]2CSSC[C@@H]3NC(=O)[C@H](C(C)C)NC(=O)[C@H](CC(C)C)NC(=O)[C@H](CC(N)=O)NC(=O)[C@@H]4CCCN4C(=O)[C@H](CCCNC(=N)N)NC(=O)[C@H](CSSC[C@H](NC(=O)[C@@H](N)CC(=O)O)C(=O)N[C@@H](CC(C)C)C(=O)NCC(=O)N[C@@H](C)C(=O)N[C@@H](Cc4ccccc4)C(=O)N[C@@H](CCCNC(=N)N)C(=O)N[C@@H](CCCCN)C(=O)N2)NC(=O)[C@H](CSSC[C@@H](C(=O)N[C@@H](CCCCN)C(=O)N[C@@H](Cc2ccc(O)cc2)C(=O)N[C@H](C(=O)N[C@@H](Cc2ccccc2)C(N)=O)C(C)C)NC(=O)[C@H](Cc2c[nH]c4ccccc24)NC(=O)[C@H](CCCNC(=N)N)NC(=O)[C@H](Cc2c[nH]cn2)NC(=O)[C@H](CC(C)C)NC(=O)[C@H](CCCNC(=N)N)NC(=O)[C@H](CO)NC3=O)NC(=O)[C@H](CCCCN)NC(=O)[C@H](CC(=O)O)NC1=O` (H-DCLGAFRKCEPD[Abu]DKCCRPNLVCSRLHRWCKYVF-NH2; disulfide 2-17, 9-23, 16-30) as the compound, how does the level at time molar at 2 h (in vivo [1]) read?
**A.** Its level at time molar at 2 h is 1720 ± 313 nM.

**Q.** What about the “behavior of animals in the open field analysis” value [2] of the same compound?
**A.** Its value is “moribund behavior or lethality”.

**Q.** With `CC[C@H](C)[C@@H]1NC(=O)[C@@H]2CSSC[C@@H]3NC(=O)[C@H](C(C)C)NC(=O)[C@H](CC(C)C)NC(=O)[C@H](CC(N)=O)NC(=O)[C@@H]4CCCN4C(=O)[C@H](CCCNC(=N)N)NC(=O)[C@H](CSSC[C@H](N)C(=O)N[C@@H](CC(C)C)C(=O)NCC(=O)N[C@@H](Cc4ccccc4)C(=O)N[C@@H](CCSC)C(=O)N[C@@H](CCCNC(=N)N)C(=O)N[C@@H](CCCCN)C(=O)N2)NC(=O)[C@H](CSSC[C@@H](C(=O)N[C@@H](CCCCN)C(=O)N[C@@H](Cc2ccc(O)cc2)C(=O)N[C@H](C(=O)N[C@@H](Cc2ccccc2)C(N)=O)C(C)C)NC(=O)[C@H](Cc2c[nH]c4ccccc24)NC(=O)[C@H](CCCCN)NC(=O)[C@H](Cc2cnc[nH]2)NC(=O)[C@H]([C@@H](C)O)NC(=O)[C@H](CCCNC(=N)N)NC(=O)[C@H](CO)NC3=O)NC(=O)[C@H](CCCCN)NC(=O)[C@H](CC(=O)O)NC(=O)[C@H](CC(N)=O)NC(=O)[C@H](CC(=O)O)NC(=O)[C@@H]2CCCN2C1=O` [SEQ ID NO: 108] (H-CLGFMRKCIPDNDKCCRPNLVCSRTHKWCKYVF-NH2; disulfide 1-16, 8-22, 15-29) as the compound, how does the IC50 (hNav1.5 [3]) read?
**A.** The IC50 was 8220 nM.

**Q.** What about the “% peptide remaining” value [4] of the same compound?
**A.** The value was 100%.

**Q.** What about the IC50 (hNav1.7 [5]) of the same compound?
**A.** The IC50 was 7 nM.

**Q.** What about the IC50 (hNav1.3 [6]) of the same compound?
**A.** The IC50 was 50 nM.

**Q.** What about the IC50 (hNav1.3 [7]; Nav1.3 Use IC50) of the same compound?
**A.** Its IC50 is 15 nM.

**Q.** What about the remaining at 2 h (in vitro [8]) of the same compound?
**A.** Its remaining at 2 h is 107%.

**Q.** What about the remaining at 4 h (in vitro [8]) of the same compound?
**A.** Its remaining at 4 h is 92%.

**Q.** And the remaining at 8 h (in vitro [8])?
**A.** The remaining at 8 h was 91%.

**Q.** And the remaining at 24 h (in vitro [8])?
**A.** The remaining at 24 h was 82%.

**Q.** What about the “% peptide remaining” value [9] of the same compound?
**A.** The value was 100%.

**Q.** What about the remaining at 2 h (in vitro [10]) of the same compound?
**A.** The remaining at 2 h was 100%.

**Q.** What about the remaining at 4 h (in vitro [10]) of the same compound?
**A.** Its remaining at 4 h is 95%.

**Q.** What about the remaining at 8 h (in vitro [10]) of the same compound?
**A.** Its remaining at 8 h is 87%.

**Q.** What about the remaining at 24 h (in vitro [10]) of the same compound?
**A.** The remaining at 24 h was 81%.

**Q.** Which results are given for `CSCC[C@@H]1NC(=O)[C@H](Cc2ccccc2)NC(=O)CNC(=O)[C@H](CC(C)C)NC(=O)[C@@H](NC(=O)[C@@H](N)CC(=O)O)CSSC[C@@H]2NC(=O)[C@@H]3CSSC[C@@H](C(=O)N[C@@H](CCCCN)C(=O)N[C@@H](Cc4ccc(O)cc4)C(=O)N[C@H](C(=O)N[C@@H](Cc4ccccc4)C(N)=O)C(C)C)NC(=O)[C@H](Cc4c[nH]c5ccccc45)NC(=O)[C@H](CCCCN)NC(=O)[C@H](Cc4c[nH]cn4)NC(=O)[C@H]([C@@H](C)O)NC(=O)[C@H](CCCNC(=N)N)NC(=O)[C@H](CO)NC(=O)[C@H](CSSC[C@H](NC(=O)[C@H](CCCCN)NC(=O)[C@H](CCCNC(=N)N)NC1=O)C(=O)N[C@@H](Cc1cccc4ccccc14)C(=O)N1CCC[C@H]1C(=O)N[C@@H](CC(=O)O)C(=O)N[C@@H](CC(N)=O)C(=O)N[C@@H](CC(=O)O)C(=O)N[C@@H](CCCCN)C(=O)N3)NC(=O)[C@H](C(C)C)NC(=O)[C@H](CC(C)C)NC(=O)[C@H](CC(N)=O)NC(=O)[C@@H]1CCCN1C(=O)[C@H](CCCNC(=N)N)NC2=O` [[1-Nal10]GpTx-1(1-34)]?
**A.** % peptide remaining ([11]; incubation time 0 hr): 100%; % peptide remaining ([11]; incubation time 2 hr): 104%; % peptide remaining ([11]; incubation time 4 hr): 106%; % peptide remaining ([11]; incubation time 6 hr): 108%; % peptide remaining ([11]; incubation time 8 hr): 112%; % peptide remaining ([11]; incubation time 24 hr): 89%; IC50 (hNav1.7 [5]): 5 nM; IC50 (hNav1.3 [7]; Nav1.3 Use IC50): 39 nM; IC50 (hNav1.5 [12]): 12900 nM

**Q.** Which IC50 (hNav1.7 [5]) does the source give for `CC[C@H](C)[C@@H]1NC(=O)[C@@H]2CSSC[C@@H]3NC(=O)[C@H](C(C)C)NC(=O)[C@H](CC(C)C)NC(=O)[C@H](CC(N)=O)NC(=O)[C@@H]4CCCN4C(=O)[C@H](CCCNC(=N)N)NC(=O)[C@H](CSSC[C@H](NC(=O)[C@@H](N)CC(=O)O)C(=O)N[C@@H](CC(C)C)C(=O)NCC(=O)N[C@@H](Cc4ccccc4)C(=O)N[C@@H](CCSC)C(=O)N[C@@H](CCCNC(=N)N)C(=O)N[C@@H](CCCCN)C(=O)N2)NC(=O)[C@H](CSSC[C@@H](C(=O)N[C@@H](CCCCN)C(=O)N[C@@H](Cc2ccc(O)cc2)C(=O)N[C@H](C(=O)N[C@@H](Cc2ccccc2)C(N)=O)C(C)C)NC(=O)[C@H](Cc2c[nH]c4ccccc24)NC(=O)[C@H](CCC(=O)O)NC(=O)[C@H](Cc2cnc[nH]2)NC(=O)[C@H]([C@@H](C)O)NC(=O)[C@H](CCCNC(=N)N)NC(=O)[C@H](CO)NC3=O)NC(=O)[C@H](CCCCN)NC(=O)[C@H](CC(=O)O)NC(=O)[C@H](CC(N)=O)NC(=O)[C@H](CC(=O)O)NC(=O)[C@@H]2CCCN2C1=O` [[Glu28]GpTx-1(1-34)] (H-DCLGFMRKCIPDNDKCCRPNLVCSRTHEWCKYVF-NH2; disulfide 2-17, 9-23, 16-30) here?
**A.** The IC50 was 26 nM.

**Q.** What about the level at time molar at 2 h (in vivo [1]) of the same compound?
**A.** Its level at time molar at 2 h is 1280 ± 403 nM.

**Q.** For `CC[C@H](C)[C@@H]1NC(=O)[C@@H]2CSSC[C@@H]3NC(=O)[C@H](C(C)C)NC(=O)[C@H](CC(C)C)NC(=O)[C@H](CC(N)=O)NC(=O)[C@@H]4CCCN4C(=O)[C@H](CCCNC(=N)N)NC(=O)[C@H](CSSC[C@H](NC(=O)[C@@H](N)CC(=O)O)C(=O)N[C@@H](CC(C)C)C(=O)NCC(=O)N[C@@H](Cc4ccccc4)C(=O)N[C@@H](CCSC)C(=O)N[C@@H](CCCNC(=N)N)C(=O)N[C@@H](CCCCN)C(=O)N2)NC(=O)[C@H](CSSC[C@@H](C(=O)N[C@@H](CCCCN)C(=O)N[C@@H](Cc2ccc(O)cc2)C(=O)N[C@H](C(=O)N[C@@H](Cc2ccccc2)C(N)=O)C(C)C)NC(=O)[C@H](CCC(=O)O)NC(=O)[C@H](CCCCN)NC(=O)[C@H](Cc2cnc[nH]2)NC(=O)[C@H]([C@@H](C)O)NC(=O)[C@H](CCCNC(=N)N)NC(=O)[C@H](CO)NC3=O)NC(=O)[C@H](CCCCN)NC(=O)[C@H](CC(=O)O)NC(=O)[C@H](CC(N)=O)NC(=O)[C@H](CC(=O)O)NC(=O)[C@@H]2CCCN2C1=O` [[Glu29]GpTx-1(1-34)] (H-DCLGFMRKCIPDNDKCCRPNLVCSRTHKECKYVF-NH2; disulfide 2-17, 9-23, 16-30), which level at time molar at […] (in vivo [13]) is on record?
**A.** The level at time molar at […] was 502 ± 271 nM.

**Q.** What about the level at time molar at 2 h (in vivo [1]) of the same compound?
**A.** Its level at time molar at 2 h is 771 ± 272 nM.

**Q.** With `Cc1cccc(C)c1OCC(C)N` (stereo not drawn) [mexiletine, reference compound] as the compound, how does the “veratridine-induced paw lifting behavior” value [14] read?
**A.** The value was “significantly reversed”.

**Q.** With “GVRDAYIADDKNCVYTCASNGYCNTECTKNGAESGYCQWIGRYGNACWCIKLPDEVPIRIPGKCR [OD1]” as the compound, how does the EC50 (NaV1.7) read?
**A.** Its EC50 is 4.5 nM.

**Q.** With “YCQKWMWTCDSERKCCEGMVCRLWCKKKLW [ProTx-II, YCQKWMWTCDSERKCCEGMVCRLWCKKKLW]” as the compound, how does the tolerability in rats [15] read?
**A.** The tolerability in rats was “lethal”.

**Q.** And the “C-fiber compound action potential” value [16]?
**A.** Its value is “completely blocked”.

**Q.** What about the action potential propagation [16] of the same compound?
**A.** Its action potential propagation is “little effect”.

**Q.** What about the “efficacy in a mechanical hyperalgesia study” value (mechanical hyperalgesia) of the same compound?
**A.** The value was “not efficacious”.

**Q.** Which results are given for “[Phe6,Atz(2 kDa EtO-PEG*-{[Phe6,Atz13*]GpTx-1(1-34)}) 13]GpTx-1(1-34) [Homodimeric Conjugate 1]”?
**A.** inhibition of the Nav1.5 current (hNav1.5 [17]): complete inhibition; IC50 (hNav1.5 [17]; read-out: IC50 against hNav1.5 sodium channels): 75.5 nM; IC50 (hNav1.5 [17]; read-out: IC50 against hNav1.5 sodium channels, partially inactivated): 57 nM; IC50 (hNav1.3 [7]; read-out: Nav1.3 Use IC50): 8 nM; IC50 (hNav1.4): 254 nM; IC50 (hNav1.5 [12]): 1430 nM; inhibition of the Nav1.7 current (hNav1.7 [18]): complete inhibition
